A short description of data set [1]: Antioxidant activity against AAPH-induced oxidative stress in Sprague-Dawley rat erythrocytes assessed as membrane stabilizing activity by measuring hemolysis at 100 uM preincubated for 15 mins followed by AAPH addition and measured after 3 hrs by microplate reader analysis (reference value: 88.6 +/- 3.7%). The class given is functional, Erythrocyte. As to conditions: time 195 min, 3.25 h.

Data set [2] can be described thus: Antioxidant activity assessed as reduction in ABTS radical measured after 1 hrs by UV/Vis microplate spectrophotometric analysis. It is filed as functional.
Data set [3] is described as follows: Antioxidant activity assessed as ABTS radical scavenging activity by measuring trolox equivalent antioxidant capacity after 1 hrs by UV/Vis microplate spectrophotometric analysis. It is filed as functional.
Data set [4] in a line: Antioxidant activity against AAPH-induced oxidative stress in Sprague-Dawley rat erythrocytes assessed as inhibition of lipid peroxidation by measuring fold change at 100 uM preincubated for 15 mins followed by AAPH addition and measured after 3 hrs by TBARS assay (reference value: 1). As to conditions: time 195 min, 3.25 h. The class given is functional, Erythrocyte.
The nature of data set [5]: Antioxidant activity assessed as trolox equivalent of FRAP radical scavenging activity measured after 1 hrs by spectrophotometric analysis. It is filed as functional.
Data set [6] can be described thus: Antioxidant activity assessed as trolox equivalent of ORAC radical scavenging activity at 10 uM measured for 2 hrs by AAPH based fluorescence microplate reader. The class given is functional.
Data set [7] is described as follows: Hemolytic activity in AAPH-induced Sprague-Dawley rat erythrocytes assessed as hemolysis at 100 uM measured after 3 hrs by microplate reader analysis relative to control. It is filed as toxicity, cell-based, Erythrocyte. The note with it: read-out: Activity.
The nature of data set [8]: Metal chelating activity assessed as Fe2+-compound complex formation by measuring absorbance at 400 uM measured after 30 mins in presence of FeCl2.4H2O by UV-Vis spectroscopic analysis (reference value: 253 to 384 nanometer).
Data set [9] in a line: Antioxidant activity assessed as ORAC radical scavenging activity by measuring fold change in trolox equivalent at 10 uM measured for 2 hrs by AAPH based fluorescence microplate reader relative to trolox. It is filed as functional.
Data set [10] has as its target Acetylcholinesterase (Homo sapiens) (UniProt P22303). Kind of data set: Inhibition of human erythrocyte acetylcholinesterase using acetylthiocholine as substrate at 20 uM by Ellman's method relative to control. On the technique in general: Ellman's reagent forms a yellow product with free thiols.
Data set [11] deals with Cholinesterase (Equus caballus) (UniProt P81908). Kind of data set: Inhibition of equine serum butyrylcholinesterase using butyrylthiocholine as substrate at 20 uM by Ellman's method relative to control.
Cholinesterase (Equus caballus), sequence (P81908 whole entry): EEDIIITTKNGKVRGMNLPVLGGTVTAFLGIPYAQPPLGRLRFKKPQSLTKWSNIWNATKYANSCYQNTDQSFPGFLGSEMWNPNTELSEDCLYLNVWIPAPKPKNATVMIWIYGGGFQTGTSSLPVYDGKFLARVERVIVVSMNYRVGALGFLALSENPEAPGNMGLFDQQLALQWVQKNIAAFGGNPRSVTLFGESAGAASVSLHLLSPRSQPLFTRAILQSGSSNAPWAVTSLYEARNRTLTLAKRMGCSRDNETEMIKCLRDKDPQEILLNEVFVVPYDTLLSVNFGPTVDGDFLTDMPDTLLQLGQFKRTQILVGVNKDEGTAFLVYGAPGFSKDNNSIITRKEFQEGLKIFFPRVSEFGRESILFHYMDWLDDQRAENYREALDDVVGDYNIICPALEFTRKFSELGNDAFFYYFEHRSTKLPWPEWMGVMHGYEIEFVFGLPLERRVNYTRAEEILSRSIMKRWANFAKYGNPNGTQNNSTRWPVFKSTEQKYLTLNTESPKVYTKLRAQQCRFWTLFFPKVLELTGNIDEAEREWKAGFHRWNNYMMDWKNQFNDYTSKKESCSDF
Data set [12] concerns the target T1, Liver carboxylesterase (Sus scrofa, UniProt Q29550).
T1 sequence (Q29550 whole entry): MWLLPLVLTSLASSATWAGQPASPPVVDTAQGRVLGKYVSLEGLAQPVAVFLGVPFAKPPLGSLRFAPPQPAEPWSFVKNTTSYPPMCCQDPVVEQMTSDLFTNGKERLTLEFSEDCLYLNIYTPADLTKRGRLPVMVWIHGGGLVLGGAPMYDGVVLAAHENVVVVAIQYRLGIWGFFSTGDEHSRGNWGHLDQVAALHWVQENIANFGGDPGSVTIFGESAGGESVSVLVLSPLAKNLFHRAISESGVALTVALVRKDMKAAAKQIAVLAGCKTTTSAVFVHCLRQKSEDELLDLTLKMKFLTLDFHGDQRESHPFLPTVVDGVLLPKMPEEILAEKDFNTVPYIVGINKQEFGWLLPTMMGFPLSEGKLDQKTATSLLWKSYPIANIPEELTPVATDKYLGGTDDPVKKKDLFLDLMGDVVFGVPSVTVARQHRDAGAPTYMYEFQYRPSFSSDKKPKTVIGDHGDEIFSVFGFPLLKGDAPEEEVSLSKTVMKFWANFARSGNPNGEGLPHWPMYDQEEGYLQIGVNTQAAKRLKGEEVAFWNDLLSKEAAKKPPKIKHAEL
Kind of data set: Inhibition of porcine liver carboxylesterase using 4-nitrophenylacetate as substrate assessed as release of 4-nitrophenol by spectrophotometric analysis.

A short description of data set [13]: Metal chelating activity assessed as Fe2+-compound complex formation by measuring absorbance at 400 uM measured after 30 mins in presence of FeCl2.4H2O by UV-Vis spectroscopic analysis (reference value: 245 to 373 nanometer).
Data set [14] has as its target T1, Liver carboxylesterase. Kind of data set: Reversible mixed type inhibition of porcine liver carboxylesterase using 4-nitrophenylacetate as substrate assessed as inhibition constant of competitive component by Lineweaver-Burk plot analysis.
The target in data set [15] is T1, Liver carboxylesterase. Kind of data set: Reversible mixed type inhibition of porcine liver carboxylesterase using 4-nitrophenylacetate as substrate assessed as inhibition constant of non-competitive component by Lineweaver-Burk plot analysis.
For data set [16], the target named is T2, Liver carboxylesterase 1 (Homo sapiens, UniProt P23141).
T2 sequence (P23141 whole entry): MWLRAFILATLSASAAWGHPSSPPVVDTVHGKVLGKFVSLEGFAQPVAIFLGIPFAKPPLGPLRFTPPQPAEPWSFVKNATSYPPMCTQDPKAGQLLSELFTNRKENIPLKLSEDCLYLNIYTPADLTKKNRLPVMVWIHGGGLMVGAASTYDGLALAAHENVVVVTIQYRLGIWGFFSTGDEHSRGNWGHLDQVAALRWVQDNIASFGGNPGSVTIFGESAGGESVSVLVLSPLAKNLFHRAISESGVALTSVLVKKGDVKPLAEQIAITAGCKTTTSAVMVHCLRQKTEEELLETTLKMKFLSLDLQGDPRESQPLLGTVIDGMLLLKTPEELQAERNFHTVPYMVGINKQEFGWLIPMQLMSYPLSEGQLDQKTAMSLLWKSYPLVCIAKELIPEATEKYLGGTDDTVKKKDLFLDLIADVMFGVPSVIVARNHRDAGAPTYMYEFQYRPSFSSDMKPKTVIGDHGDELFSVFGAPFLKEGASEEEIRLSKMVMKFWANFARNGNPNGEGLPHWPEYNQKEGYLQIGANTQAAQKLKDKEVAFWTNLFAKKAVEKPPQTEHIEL
Kind of data set: Inhibition of human CES1 using 4-nitrophenylacetate as substrate assessed as release of 4-nitrophenol by spectrophotometric analysis.

For data set [17], the target named is T3, Cocaine esterase (Homo sapiens, UniProt O00748).
T3 sequence (O00748 whole entry): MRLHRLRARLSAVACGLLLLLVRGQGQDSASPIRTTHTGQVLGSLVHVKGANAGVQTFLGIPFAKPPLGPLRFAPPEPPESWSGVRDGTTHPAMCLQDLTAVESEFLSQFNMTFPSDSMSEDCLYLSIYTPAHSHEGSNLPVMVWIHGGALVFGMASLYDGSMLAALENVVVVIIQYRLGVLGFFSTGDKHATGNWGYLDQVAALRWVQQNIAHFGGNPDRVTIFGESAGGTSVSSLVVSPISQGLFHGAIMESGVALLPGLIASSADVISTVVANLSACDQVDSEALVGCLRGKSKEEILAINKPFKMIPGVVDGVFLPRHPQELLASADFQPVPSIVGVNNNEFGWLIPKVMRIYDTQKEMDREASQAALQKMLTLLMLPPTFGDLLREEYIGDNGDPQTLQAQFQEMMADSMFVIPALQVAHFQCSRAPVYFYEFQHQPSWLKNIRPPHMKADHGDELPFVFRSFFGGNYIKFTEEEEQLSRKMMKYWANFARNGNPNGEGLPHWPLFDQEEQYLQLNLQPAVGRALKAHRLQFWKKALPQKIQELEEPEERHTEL
Kind of data set: Inhibition of human CES2 using 4-nitrophenylacetate as substrate assessed as release of 4-nitrophenol by spectrophotometric analysis.

Activity calls are given as the source filed them. No cut-off for these calls is given here.

As a reminder, the IC50 is the point on the concentration scale where inhibition reaches its midpoint. In general, inhibition refers to the share of the control response that was lost under treatment. As a reminder, the Ki is a dissociation constant, usually derived from enzyme kinetics or from competition with a known ligand.

Acetylcholinesterase (Homo sapiens), sequence (P22303 whole entry): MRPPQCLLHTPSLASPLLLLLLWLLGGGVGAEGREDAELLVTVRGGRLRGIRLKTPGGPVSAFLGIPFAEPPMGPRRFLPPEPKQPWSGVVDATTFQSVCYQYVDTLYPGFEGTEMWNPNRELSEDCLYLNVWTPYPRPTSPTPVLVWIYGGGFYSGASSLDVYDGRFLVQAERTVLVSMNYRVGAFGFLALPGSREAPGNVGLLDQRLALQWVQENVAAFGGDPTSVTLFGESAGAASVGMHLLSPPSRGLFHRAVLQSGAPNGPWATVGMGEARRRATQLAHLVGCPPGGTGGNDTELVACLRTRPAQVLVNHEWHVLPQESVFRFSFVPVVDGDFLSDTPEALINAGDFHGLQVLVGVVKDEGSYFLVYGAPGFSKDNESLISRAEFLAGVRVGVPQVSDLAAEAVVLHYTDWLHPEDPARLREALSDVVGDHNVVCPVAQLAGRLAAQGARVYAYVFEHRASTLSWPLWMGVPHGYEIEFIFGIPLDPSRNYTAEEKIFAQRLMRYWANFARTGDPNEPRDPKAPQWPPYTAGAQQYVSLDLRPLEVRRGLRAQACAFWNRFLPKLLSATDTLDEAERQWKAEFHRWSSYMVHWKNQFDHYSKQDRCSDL

Turning to `COc1ccc(N/N=C(\C(=O)O)C(=O)C(F)(F)C(F)(F)C(F)(F)F)cc1`, the Activity in [1] stood at 95.9%; in data set [3], 2.1; in data set [5] it was 1.86; in [6], 3.67; in data set [8] it was 271 nm. In addition, the IC50 in data set [2] was determined as 8.2 µM; in data set [12], 96 nM. Also, the “fold change (FC)” value was 0.63 in data set [4] and more than 3 in data set [9]. In [7], the hemolysis at 3 h, 100 µM worked out at 2%. Moreover, the values for the inhibition in [10] and in [11] were 19.4% and 13.4%, respectively.

For `COc1ccc(N/N=C(/C(C)=O)C(=O)O)cc1`, the Activity was found to be 45.6% in [1], 2.5 in [5], 263 nm in data set [13] and 3.67 in data set [6]. For the same compound, the “fold change (FC)” value in data set [4] was 0.24; in data set [9] it was more than 3. Also, in data set [7], the hemolysis at 3 h, 100 µM amounted to 2%.

On to `Cc1ccc(N/N=C(\C(=O)O)C(=O)C(F)(F)C(F)(F)C(F)(F)C(F)(F)F)cc1`, for which the Ki worked out at 18 nM in [14] and 27 nM in data set [15]. For the same compound, the IC50 stood at 10.9 µM in [2], 42 nM in data set [12], 102 nM in [16] and 109 nM in data set [17]. Also, the Activity in data set [3] is 1.37; in [5], 0.14; in data set [6], 3.2. Further, the fold change (FC) in data set [9] was more than 3. Also, in data set [10], the inhibition worked out at 9.8%. In addition, in data set [11], the inhibition result was “inactive”.
